{"source": "paper PMC12287680", "about": "“Efficient Acyloxymethylation of Psilocin and Other Tryptamines Yielding ACOM Prodrugs for Psychedelic‐Assisted Therapy” (Archiv Der Pharmazie, 2025)", "key": {"[1]": {"experiment": "Half-lives in PBS at 80°C (nonspecific hydrolysis)", "format": "physicochemical", "conditions": "for half-life at 50 µM: pH 7.3, PBS, 80°C, 5·10^−5 M, footnote: no replicates; for stability in buffer compared with plasma: buffer at 80°C versus plasma at 37°C, same concentration", "description": "As a measure of the drug release rate in the systemic blood circulation, we determined the half‐lives of 15, 16, and 23–26 in pooled human plasma. […] This illustrates that the drug release kinetics in human plasma are highly dependent upon the chosen acyl residue, which allows for tailoring the prodrug's pharmacokinetic profile to the therapeutic requirements. To assess the contribution of nonspecific hydrolysis to the observed kinetics, we incubated the prodrugs at the same concentration in the buffer used to dilute the plasma samples.\n(§1) The kinetic studies were carried out by following the loss of substrate under the indicated conditions using HPLC‐UV. Pooled human plasma was obtained commercially (Biowest, France), while human saliva was freshly collected with the written informed consent of the saliva donors. In a typical run, the reaction was initiated by adding the prewarmed medium to a prewarmed aliquot of a 5 mM stock solution of the analyte in DMSO, resulting in a final concentration of 5·10^−5 M. A volume of 100 µL samples of the reaction mixture were taken at suitable intervals, and the reaction was either stopped by cooling to –20°C (PBS) or by protein precipitation using 2:1 (v/v) acetonitrile (saliva, plasma). Precipitates were removed by centrifugation and decantation prior to HPLC analysis. Pseudo‐first‐order rate constants for the observed degradation were determined from the slope of linear plots of ln(peak area) versus time. More detailed descriptions are provided in the Supporting Information."}, "[2]": {"experiment": "Half-lives in human saliva at 37°C", "format": "in vitro ADME", "conditions": "fresh resting whole human saliva, mean of three measurements with fresh samples of three individuals, 5·10^−5 M, read-out: Half‐lives t 1/2 at 37°C in human Saliva", "description": "Finally, we studied the stability of the compounds in human saliva. […] In line with the literature, the stability of a given compound in human saliva varied considerably between subjects (Figure 7).\nas §1"}, "[3]": {"parameters": "method as in earlier work", "conditions": "rats, ref 10b, cited from earlier work"}, "[4]": {"experiment": "Half-lives in pooled human plasma at 37°C", "format": "in vitro ADME", "conditions": "for half-lives t1/2 in human plasma (v/v) at 37°C: 100% plasma, [prodrug]0 =50 µM", "description": "As a measure of the drug release rate in the systemic blood circulation, we determined the half‐lives of 15, 16, and 23–26 in pooled human plasma. […] To assess the contribution of nonspecific hydrolysis to the observed kinetics, we incubated the prodrugs at the same concentration in the buffer used to dilute the plasma samples.\nas §1\n^a The release kinetics of the prodrugs were evaluated in vitro in analogy to the precedent literature.^[1] […] Pooled human blood plasma (Biowest, France) and sterile Dulbecco’s phosphate buffered saline (PBS) pH 7.3 (Sigma-Aldrich, Germany) were used for all experiments. In short, prewarmed (37°C) human plasma and prewarmed (37°C) prodrug (5 mM stock in DMSO) were gently mixed, which afforded a 50 µM solution of the prodrug in human plasma. Incubation was continued at 37°C, and 100 µL samples of the mixture were taken at appropriate time intervals. The samples were immediately quenched with acetonitrile (2:1), centrifuged, decanted, and analyzed via HPLC-UV. Half-lives were determined assuming first-order kinetics; specific values are the mean of triplicates ± standard deviation. For more details, please refer to the SI."}, "[5]": {"experiment": "Passive membrane permeability across an artificial membrane", "format": "in vitro ADME", "conditions": "for Papp: PAMPA, pH 7.4, read-out: Passive membrane permeability Pe", "from_the_text": "As expected, all tested prodrugs have a high propensity for passive passage across an artificial membrane at pH 7.4 (≥ 8·10^−6 cm/s). […] The loss of the intramolecular hydrogen bond between the phenolic hydroxy group and the tertiary amino group upon O‐substitution appears to decrease the membrane permeability of the prodrugs in comparison to the parent drug. This effect is apparently not entirely compensated by the ACOM promoiety, which in itself is not completely apolar due to the acetal and ester oxygens. The intramolecular hydrogen bond may reduce the polarity of 4‐hydroxytryptamines by introducing a conformational restraint and thereby favoring conformations with a smaller polar surface area and a lower dipole moment and by decreasing hydrogen bonding to the aqueous solvent. In addition, the intramolecular hydrogen bond in 4‐hydroxytryptamines lowers the pK a of the amine and therefore shifts the protonation equilibrium toward the neutral species. The higher proportion of the uncharged species in 4‐hydroxytryptamines compared with their O‐substituted congeners further increases the difference in passive membrane permeability."}, "[6]": {"conditions": "pH 7.4; cited from earlier work"}, "[7]": {"conditions": "cited from earlier work"}, "[8]": {"conditions": "in DMSO; cited from earlier work"}, "[9]": {"conditions": "100% (undiluted) pooled human plasma, 37°C, 100% pooled human plasma, 5·10^−5 M"}, "[10]": {"conditions": "10% pooled human plasma in PBS, pH 7.3, 37°C, 10% pooled human plasma diluted with PBS, 5·10^−5 M"}, "[11]": {"conditions": "diluted pooled human plasma, pH 7.3, even in diluted human plasma, read-out: half‐lives in human plasma"}}, "note": "Counter-ions that a name gives are not always drawn. Marks after values point to notes of the source that are not given here.", "data": [{"smiles": "CC(=O)Oc1ccccc1C(=O)O", "note": "[ASA, Acetylsalicylic acid, reference compound]", "values": [{"measurement": "half-life at 50 µM", "setting": "[1]", "value": "27.9 ± 0.3", "unit": "min"}, {"measurement": "half-life at 50 µM", "setting": "[2]", "value": "> 60", "unit": "min"}]}, {"smiles": "CN(C)CCc1c[nH]c2cccc(OCOC(=O)C(C)(C)C)c12", "note": "[Compound 2]", "values": [{"measurement": "detected systemic psilocin level", "setting": "[3]; peroral dosing", "value": "relatively low"}, {"measurement": "prodrug behaviour upon peroral dosing", "setting": "[3]", "value": "acts as a psilocin prodrug"}]}, {"smiles": "CCN(C)CCc1cn(C(=O)OCc2ccccc2)c2cccc(O)c12", "note": "[Compound 15]", "values": [{"measurement": "half-life at 50 µM", "setting": "[1]", "value": "136 ± 4", "unit": "min"}, {"measurement": "half-life at 50 µM", "setting": "[4]; [9]", "value": "> 5700", "unit": "min"}, {"measurement": "half-lives t1/2 in human plasma (v/v) at 37°C", "setting": "[4]; 37°C", "value": "> 5700 (100%) min"}, {"measurement": "drug release in undiluted human plasma during the observation period", "setting": "[4]; 37°C", "value": "Neither the N‐carbamates 15 and 16 nor the sterically hindered pivaloyloxymethyl ethers 23 and 25 showed significant drug release"}]}, {"smiles": "CN(C)CCc1cn(C(=O)OCc2ccccc2)c2cccc(O)c12", "note": "[Compound 16, 1‐Benzyloxycarbonyl‐4‐Hydroxy‐N,N‐Dimethyltryptamine]", "values": [{"measurement": "half-life at 50 µM", "setting": "[1]", "value": "184 ± 5", "unit": "min"}, {"measurement": "half-life at 50 µM", "setting": "[4]; [9]", "value": "> 5700", "unit": "min"}, {"measurement": "half-lives t1/2 in human plasma (v/v) at 37°C", "setting": "[4]; 37°C", "value": "> 5700 (100%) min"}, {"measurement": "drug release in undiluted human plasma during the observation period", "setting": "[4]; 37°C", "value": "Neither the N‐carbamates 15 and 16 nor the sterically hindered pivaloyloxymethyl ethers 23 and 25 showed significant drug release"}]}, {"smiles": "CCN(C)CCc1c[nH]c2cccc(OCOC(=O)C(C)(C)C)c12", "note": "[Compound 23]", "values": [{"measurement": "Papp", "setting": "[5]", "value": "9.7 ± 0.6", "unit": "×10⁻⁶ cm/s"}, {"measurement": "Passive membrane permeability R (%) (mass retention)", "setting": "[5]; pH 7.4", "value": 2, "unit": "%"}, {"measurement": "half-life at 50 µM", "setting": "[1]", "value": "534 ± 12", "unit": "min"}, {"measurement": "half-life at 50 µM", "setting": "[2]", "value": "< 20", "unit": "min"}, {"measurement": "half-life at 50 µM", "setting": "[4]; [9]", "value": "> 240", "unit": "min"}, {"measurement": "half-lives t1/2 in human plasma (v/v) at 37°C", "setting": "[4]; 37°C", "value": "> 240 (100%) min"}, {"measurement": "drug release in undiluted human plasma during the observation period", "setting": "[4]; 37°C", "value": "Neither the N‐carbamates 15 and 16 nor the sterically hindered pivaloyloxymethyl ethers 23 and 25 showed significant drug release"}]}, {"smiles": "CCCC(=O)OCOc1cccc2[nH]cc(CCN(C)CC)c12", "note": "[Compound 24]", "values": [{"measurement": "Papp", "setting": "[5]", "value": "8 ± 0.3", "unit": "×10⁻⁶ cm/s"}, {"measurement": "Passive membrane permeability R (%) (mass retention)", "setting": "[5]; pH 7.4", "value": 6, "unit": "%"}, {"measurement": "stability in buffer compared with plasma", "setting": "[1]", "value": "significantly more stable in buffer than in plasma"}, {"measurement": "half-life at 50 µM", "setting": "[1]", "value": "73.3 ± 1.2", "unit": "min"}, {"measurement": "half-life at 50 µM", "setting": "[2]", "value": "< 10", "unit": "min"}, {"measurement": "half-life at 50 µM", "setting": "[4]; [10]", "value": "4.2 ± 0.1", "unit": "min"}, {"measurement": "half-life at 50 µM", "setting": "[4]; [11]", "value": "< 5", "unit": "min"}]}, {"smiles": "CN(C)CCc1c[nH]c2cccc(OCOC(=O)C(C)(C)C)c12", "note": "[Compound 25]", "values": [{"measurement": "Papp", "setting": "[5]", "value": "9.1 ± 0.5", "unit": "×10⁻⁶ cm/s"}, {"measurement": "Passive membrane permeability R (%) (mass retention)", "setting": "[5]; pH 7.4", "value": 4, "unit": "%"}, {"measurement": "half-life at 50 µM", "setting": "[1]", "value": "458 ± 23", "unit": "min"}, {"measurement": "half-life at 50 µM", "setting": "[2]", "value": "< 20", "unit": "min"}, {"measurement": "half-life at 50 µM", "setting": "[4]; [9]", "value": "> 240", "unit": "min"}, {"measurement": "half-lives t1/2 in human plasma (v/v) at 37°C", "setting": "[4]; 37°C", "value": "> 240 (100%)^b min"}, {"measurement": "chemical and plasma stability, in words", "setting": "[4]; in vitro", "value": "high chemical and plasma stability"}, {"measurement": "drug release in undiluted human plasma during the observation period", "setting": "[4]; 37°C", "value": "Neither the N‐carbamates 15 and 16 nor the sterically hindered pivaloyloxymethyl ethers 23 and 25 showed significant drug release"}]}, {"smiles": "CCCC(=O)OCOc1cccc2[nH]cc(CCN(C)C)c12", "note": "[Compound 26, 4‐n‐Butanoyloxymethyloxy‐N,N‐Dimethyltryptammonium Fumarate]", "values": [{"measurement": "Papp", "setting": "[5]", "value": "8.1 ± 0.8", "unit": "×10⁻⁶ cm/s"}, {"measurement": "Passive membrane permeability R (%) (mass retention)", "setting": "[5]; pH 7.4", "value": "7 ^e %"}, {"measurement": "stability in buffer compared with plasma", "setting": "[1]", "value": "significantly more stable in buffer than in plasma"}, {"measurement": "half-life at 50 µM", "setting": "[1]", "value": "58.6 ± 3.5", "unit": "min"}, {"measurement": "half-life at 50 µM", "setting": "[2]", "value": "< 10", "unit": "min"}, {"measurement": "half-life at 50 µM", "setting": "[4]; [10]", "value": "3.5 ± 0.8", "unit": "min"}, {"measurement": "half-life at 50 µM", "setting": "[4]; [9]", "value": "0.48 ± 0.1", "unit": "min"}, {"measurement": "half-life at 50 µM", "setting": "[4]; [11]", "value": "< 5", "unit": "min"}]}, {"smiles": "CCN(C)CCc1c[nH]c2cccc(O)c12", "note": "[Compound 30, reference compound]", "values": [{"measurement": "Passive membrane permeability Pe", "setting": "[5]; pH 7.4", "value": "11 ± 1 10^−6cm/s"}, {"measurement": "Passive membrane permeability R (%) (mass retention)", "setting": "[5]; pH 7.4", "value": 29, "unit": "%"}, {"measurement": "mass retention (R%), in words", "setting": "[5]; pH 7.4", "value": "remarkably high"}, {"measurement": "membrane permeability, ranking", "setting": "[5]; pH 7.4, compared with the prodrugs", "value": "highest membrane permeability"}]}, {"smiles": "CN(C)CCc1c[nH]c2cccc(OP(=O)(O)O)c12", "note": "[psilocybin]", "values": [{"measurement": "logD7.4", "setting": "[6]", "value": "−0.89"}]}, {"smiles": "CNS(=O)(=O)Cc1ccc2[nH]cc(CCN(C)C)c2c1", "note": "[sumatriptan]", "values": [{"measurement": "logP", "setting": "[7]", "value": 0.93}, {"measurement": "sulfonamide pKa", "setting": "[8]", "value": "~ 17.5"}, {"measurement": "logD7.4", "setting": "[6]", "value": "−1.3"}]}]}
